Data reported in patent publication US10101331B2, “Methods of evaluating patients using E-cadherin or vimentin” (AGIOS PHARMACEUTICALS, INC, priority 2012, dated 2018).

Legend:
Assay in all cases: Lung cancer cell line panel screened for sensitivity to BPTES, 72 hr proliferation assay
Assay type in all cases: cell-based
A427 = test system: A427
Source text: (§1) Of these, 44 of the cell lines have been classified as non-small cell lung cancer (NSCLC). […] Four of the top 25 transcriptional/cellular pathways were related to the epithelial-mesenchymal transition (EMT) (ranks 1, 15, 23, 25 of FIG. 2). […] Low E-cadherin/high vimentin are well-defined markers of cells that have a mesenchymal phenotype as characterized for example, in any one of the following references: (Yauch et al., (2005) Cin Cancer Res 11:24; Savagner et al., (2010) Ann Oncol. 21(suppl 7): vii89; Thiery et al., (2002) Nature Reviews Cancer June vol 2:442).

A549 = test system: A549
Source text: as §1

COR-L279 = test system: COR-L279
Source text: as §1

DMS-53 = DMS-53 cell line
Source text: as §1

H2228 = test system: H2228
Source text: as §1

HCC15 = test system: HCC15
Source text: as §1

NCI-H1048 = test system: NCI-H1048
Source text: as §1

NCI-H1092 = test system: NCI-H1092
Source text: as §1

NCI-H1155 = test system: NCI-H1155
Source text: as §1

NCI-H1299 = test system: NCI-H1299
Source text: as §1

NCI-H1355 = test system: NCI-H1355
Source text: as §1

NCI-H1395 = test system: NCI-H1395
Source text: as §1

NCI-H1563 = test system: NCI-H1563
Source text: as §1

NCI-H1568 = test system: NCI-H1568
Source text: as §1

NCI-H1573 = test system: NCI-H1573
Source text: as §1

NCI-H1581 = test system: NCI-H1581
Source text: as §1

NCI-H1623 = test system: NCI-H1623
Source text: as §1

NCI-H1650 = test system: NCI-H1650
Source text: as §1

NCI-H1651 = test system: NCI-H1651
Source text: as §1

NCI-H1666 = test system: NCI-H1666
Source text: as §1

NCI-H1694 = test system: NCI-H1694
Source text: as §1

NCI-H1770 = test system: NCI-H1770
Source text: as §1

NCI-H1975 = test system: NCI-H1975
Source text: as §1

NCI-H2030 = test system: NCI-H2030
Source text: as §1

NCI-H2081 = test system: NCI-H2081
Source text: as §1

NCI-H209 = test system: NCI-H209
Source text: as §1

NCI-H2122 = test system: NCI-H2122
Source text: as §1

NCI-H2126 = test system: NCI-H2126
Source text: as §1

NCI-H2347 = test system: NCI-H2347
Source text: as §1

NCI-H23 = test system: NCI-H23
Source text: as §1

NCI-H292 = test system: NCI-H292
Source text: as §1

NCI-H661 = test system: NCI-H661
Source text: as §1

NCI-H774 = test system: NCI-H774
Source text: as §1

NCI-H82 = test system: NCI-H82
Source text: as §1

NCI-H838 = test system: NCI-H838
Source text: as §1

## O=C(Cc1ccccc1)Nc1nnc(CCSCCc2nnc(NC(=O)Cc3ccccc3)s2)s1 [BPTES]
A427; A427, 10 uM
  Max Inh @ 10 uM (%): 86%
  Mu/max @10 uM: −0.49
  μ/μmax @10 uM: −0.49
A427; A427 cell line
  μ/μmax: −0.49
A549; A549, 10 uM
  Max Inh @ 10 uM (%): 73%
  Mu/max @10 uM: 0.53
  μ/μmax @10 uM: 0.53
A549; A549 cell line
  μ/μmax: 0.53
COR-L279
  μ/μmax: 0.88
DMS-53
  μ/μmax: 0.93
H2228
  μ/μmax: 0.69
HCC15; HCC15, 10 uM
  Max Inh @ 10 uM (%): 40%
  Mu/max @10 uM: 0.64
  μ/μmax @10 uM: 0.64
HCC15; HCC15 cell line
  μ/μmax: 0.64
NCI-H1048
  μ/μmax: 0.94
NCI-H1092
  μ/μmax: 0.77
NCI-H1155
  μ/μmax: 0.93
NCI-H1299
  μ/μmax: 0.49
NCI-H1355
  μ/μmax: 0.78
NCI-H1395; NCI-H1395, 10 uM
  Max Inh @ 10 uM (%): 16%
  Mu/max @10 uM: 0.61
  μ/μmax @10 uM: 0.61
NCI-H1395; NCI-H1395 cell line
  μ/μmax: 0.61
NCI-H1563; NCI-H1563, 10 uM
  Max Inh @ 10 uM (%): 8%
  Mu/max @10 uM: 0.92
  μ/μmax @10 uM: 0.92
NCI-H1563; NCI-H1563 cell line
  μ/μmax: 0.92
NCI-H1568; NCI-H1568, 10 uM
  Max Inh @ 10 uM (%): 50%
  Mu/max @10 uM: 0.25
  μ/μmax @10 uM: 0.25
NCI-H1568; NCI-H1568 cell line
  μ/μmax: 0.25
NCI-H1573
  μ/μmax: 0.92
NCI-H1581
  μ/μmax: 0.51
NCI-H1623
  μ/μmax: 0.79
NCI-H1650
  μ/μmax: 0.26
NCI-H1651
  μ/μmax: 1.00
NCI-H1666
  μ/μmax: 1.00
NCI-H1694
  μ/μmax: 1.00
NCI-H1770
  μ/μmax: 0.56
NCI-H1975; NCI-H1975, 10 uM
  Max Inh @ 10 uM (%): 18%
  Mu/max @10 uM: 0.75
  μ/μmax @10 uM: 0.75
NCI-H1975; NCI-H1975 cell line
  μ/μmax: 0.75
NCI-H2030; NCI-H2030, 10 uM
  Max Inh @ 10 uM (%): 87%
  Mu/max @10 uM: 0.37
  μ/μmax @10 uM: 0.37
NCI-H2030; NCI-H2030 cell line
  μ/μmax: 0.37
NCI-H2081
  μ/μmax: 1.00
NCI-H209
  μ/μmax: 0.64
NCI-H2122; NCI-H2122, 10 uM
  Max Inh @ 10 uM (%): 58%
  Mu/max @10 uM: 0.56
  μ/μmax @10 uM: 0.56
NCI-H2122; NCI-H2122 cell line
  μ/μmax: 0.56
NCI-H2126
  μ/μmax: 1.00
NCI-H2347
  μ/μmax: 0.90
NCI-H23; NCI-H23, 10 uM
  Max Inh @ 10 uM (%): 45%
  Mu/max @10 uM: 0.60
  μ/μmax @10 uM: 0.60
NCI-H23; NCI-H23 cell line
  μ/μmax: 0.60
NCI-H292
  μ/μmax: 0.89
NCI-H661; NCI-H661, 10 uM
  Max Inh @ 10 uM (%): 73%
  Mu/max @10 uM: 0.43
  μ/μmax @10 uM: 0.43
NCI-H661; NCI-H661 cell line
  μ/μmax: 0.43
NCI-H774
  μ/μmax: 0.54
NCI-H82
  μ/μmax: 0.90
NCI-H838; NCI-H838
  sensitivity to BPTES: moderate level of sensitivity
NCI-H838; NCI-H838, 10 uM
  Max Inh @ 10 uM (%): 37%
  Mu/max @10 uM: 0.66
  μ/μmax @10 uM: 0.66
NCI-H838; NCI-H838 cell line
  μ/μmax: 0.66
